{
  "source": "patent US7786142B2",
  "about": "“Heterocyclic compounds as pSTAT3/IL-6 inhibitors” (Orchid Research Laboratories, Ltd., priority 2005, dated 2010)",
  "assay_type_in_all_cases": "cell-based",
  "key": {"NCIH460 cells": {"system": "NCIH460 cells", "experiment": "Anti-cancer screen (MTT), NCIH460 cells", "conditions": "Homo sapiens, NCI-H460, NCIH460, 48 hours, concentrations tested 0.01-100 μM", "method_in_brief": "(§1)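 Cells (5000/well) in DMEM with 10% FBS were treated for 48 hours with 0.01, 0.1, 1, 10 and 100 μM compound in triplicate. MTT read at 570 nm gave percent growth relative to untreated controls and pre-dose T0 wells, from which GI50, TGI and LC50 were derived.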"}, "MDAMB-231/U 251": {"system": "MDAMB-231/U 251", "experiment": "Anti-cancer screen (MTT), MDAMB-231/U 251 cells", "conditions": "MDAMB-231/U 251, 48 hours, concentrations tested 0.01-100 μM", "method_in_brief": "as §1"}, "HCT116 cells": {"system": "HCT116 cells", "experiment": "Anti-cancer screen (MTT), HCT116 cells", "conditions": "Homo sapiens, HCT-116, HCT116, 48 hours, concentrations tested 0.01-100 μM", "method_in_brief": "as §1"}, "[1]": {"system": "NCIH460, HCT116, MDAMB-231/U 251", "experiment": "Anti-cancer screen, mean GI50 over the cell lines", "method_in_brief": "as §1"}, "[2]": {"conditions": "read-out: LC50 (the source's name)"}},
  "data": [
    {"compound": "COc1ccc(CNC[C@H](O)COc2cccc3[nH]c4ccccc4c23)c(OC)c1", "note": "[Example 25, (2S)-1-(9H-carbazol-4-yloxy)-3-[(2,4-dimethoxybenzyl)amino]propan-2-ol]", "values": [
      {"measurement": "GI50", "setting": "NCIH460 cells", "result": 0.67, "unit": "µM"},
      {"measurement": "IC (TGI)", "setting": "NCIH460 cells", "result": 55, "unit": "µM"},
      {"measurement": "CC50", "setting": "NCIH460 cells; [2]", "result": 68, "unit": "µM"},
      {"measurement": "GI50", "setting": "MDAMB-231/U 251", "result": 13, "unit": "µM"},
      {"measurement": "IC (TGI)", "setting": "MDAMB-231/U 251", "result": 49, "unit": "µM"},
      {"measurement": "CC50", "setting": "MDAMB-231/U 251; [2]", "result": 81, "unit": "µM"},
      {"measurement": "GI50", "setting": "HCT116 cells", "result": 5.6, "unit": "µM"},
      {"measurement": "IC (TGI)", "setting": "HCT116 cells", "result": 48, "unit": "µM"},
      {"measurement": "LC50 (concentration for 50% net cell kill relative to T0)", "setting": "HCT116 cells", "result": 79, "unit": "µM"},
      {"measurement": "GI50", "setting": "[1]", "result": 6.4, "unit": "µM"}
    ]}
  ]
}
